What all share (assay): NCI-60 cell line screen, 48 h
Assay [1] has as its system BT-549.
Assay [2] relates to M14.
The test system of assay [3] is UO-31.
In assay [4] the test system is SF-268.
Assay [5] relates to KM12.
The subject of assay [6] is SNB-19.
The test system of assay [7] is HOP-92.
Assay [8] relates to HCT-15.
In assay [9] the test system is IGROV-1.
Assay [10] concerns SF-295.
Assay [11] concerns UACC-62.
For assay [12], the system named is OVCAR-5.
The test system of assay [13] is ACHN.
Assay [14] concerns NCI-H226.
Assay [15] concerns MCF7.
For assay [16], the system named is EKVX.
Assay [17] has as its system Malme-3M.
Assay [18] deals with OVCAR-4.
In assay [19] the test system is HT-29.
In assay [20] the test system is RXF 393.

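Grown in 96-well plates, cells were treated for 48 hours with each compound at five concentrations. Insufficient inhibition: endpoint recorded as highest concentration tested. Abbreviation: GI50, concentration required for 50% inhibition of growth.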 Activity calls are given as the source filed them. Rule as the data show it: active = GI50 up to about 1.1 µM and inactive = higher. A value given as a limit tells only on which side of the number the result lay.

From ChEMBL document CHEMBL1201862, “PubChem BioAssay data set” (2004) come the findings set out here.

On to `Cc1ccc2c(c1C)-c1c(ccc(C)c1C)C(=O)C2=O`, for which the GI50 in [1] is 0.335 µM (active); in assay [2], 0.679 µM (active); in [3], 0.625 µM (active); in assay [4] it was 0.385 µM (active); in assay [5] it was 0.165 µM (active); in [6] it was 0.881 µM (active). Further, the GI50 was 0.374 µM (active) in assay [7]; 0.292 µM in assay [8]; 0.357 µM (active) in [9]; 0.59 µM (active) in assay [10]; 0.356 µM (active) in assay [11]; 1.55 µM (inactive) in assay [12]. Further, the GI50 in assay [13] was 0.625 µM (active); in assay [14], 1.66 µM (inactive); in [15] it was 0.21 µM (active); in assay [16], 2.13 µM (inactive); in assay [17], 0.598 µM (active); in [18] it was 0.0459 µM (active). Also, the values for the GI50 in assay [19] and in assay [20] were 2.36 µM (inactive) and 0.337 µM (active), respectively.

On to `O=c1oc2ccccc2c(Nc2ccc3c(c2)Oc2ccccc2O3)c1[N+](=O)[O-]`, for which the GI50 in [1] was 25.6 µM (inactive); in [2] it was 30.3 µM (inactive); in assay [3], > 100 µM (inactive); in assay [4], 23.7 µM (inactive); in assay [5], 59.2 µM (inactive); in assay [6], 17.5 µM (inactive). Also, the GI50 in [7] is 16.7 µM (inactive); in [8] it was 44.1 µM; in assay [9], 19 µM (inactive); in [10] it was 18 µM (inactive); in assay [11], 17.7 µM (inactive); in assay [12], 35.6 µM (inactive). In addition, the GI50 in [13] is 16.3 µM (inactive); in assay [14] it was 23.1 µM (inactive); in assay [15] it was 20.3 µM (inactive); in assay [16], 21.7 µM (inactive); in assay [17], 23 µM (inactive); in assay [18], 23.9 µM (inactive). Also, the GI50 was 65.2 µM (inactive) in assay [19] and 17.5 µM (inactive) in assay [20].

For the molecule `C[C@]12[C@@H]3CC[C@H]1[C@@H](OC(=O)Nc1cc([N+](=O)[O-])cc([N+](=O)[O-])c1)C(=O)N2CC3`, the GI50 in [1], in [2], in assay [3], in assay [4], in [5] and in assay [6] was > 100 µM (inactive) each time. Further, the GI50 was > 100 µM (inactive) in assay [7]; > 100 µM in [8]; > 100 µM (inactive) in assay [9]; > 100 µM (inactive) in assay [10]; > 100 µM (inactive) in assay [11]; > 100 µM (inactive) in assay [12]. For the same molecule, the GI50 in [13], in assay [14], in assay [15], in assay [16], in assay [17] and in assay [18] was > 100 µM (inactive) in each case. The GI50 in assay [19] and in assay [20] was > 100 µM (inactive) each time.

As for `O=[N+]([O-])C(=C(N1CCCCC1)N1CCCCC1)/C(Cl)=C(\Cl)[N+](=O)[O-]`, the GI50 was 6.95 µM (inactive) in assay [1]; 8.47 µM (inactive) in [2]; 3.54 µM (inactive) in [3]; 12.1 µM (inactive) in assay [4]; 19.4 µM (inactive) in assay [5]; 19.9 µM (inactive) in [6]. Besides, the GI50 in assay [7] was 2.74 µM (inactive); in assay [8], 2.17 µM; in [9], 1.72 µM (inactive); in assay [10], 21.5 µM (inactive); in [11] it was 15 µM (inactive); in assay [12], 17.9 µM (inactive). In addition, the GI50 is 3.27 µM (inactive) in assay [13]; 20.6 µM (inactive) in assay [14]; 2.46 µM (inactive) in [15]; 13 µM (inactive) in assay [16]; 2.37 µM (inactive) in assay [17]; 8.2 µM (inactive) in [18]. The results for the GI50 in [19] and in [20] were 4.74 µM (inactive) and 1.31 µM (inactive), respectively.

Consider `COC1CC(N)C(O)C(C)O1` (stereo not given), for which the GI50 in assay [1], in assay [2], in [3], in assay [4], in assay [5] and in [6] was > 100 µM (inactive) throughout. Besides, the GI50 in assay [7] is > 100 µM (inactive); in assay [8], > 100 µM; in assay [9], > 100 µM (inactive); in assay [10] it was > 100 µM (inactive); in assay [11], > 100 µM (inactive); in assay [12], > 100 µM (inactive). Further, the GI50 in assay [13], in assay [14], in assay [15], in assay [16], in [17] and in assay [18] was > 100 µM (inactive) throughout. Moreover, the GI50 in [19] and in assay [20] was > 100 µM (inactive) throughout.

Regarding `CN(C)c1ccc(/C=C(\NC(=O)c2ccccc2)c2nn(C)c(=O)o2)cc1`, the GI50 is > 100 µM (inactive) in assay [1]; 46 µM (inactive) in assay [2]; > 100 µM (inactive) in assay [3]; 44.1 µM (inactive) in [4]; 37.6 µM (inactive) in assay [5]; 28.1 µM (inactive) in assay [6]. Besides, the GI50 was > 100 µM (inactive) in assay [7]; > 100 µM in assay [8]; 58.6 µM (inactive) in assay [9]; 47.5 µM (inactive) in [10]; > 100 µM (inactive) in [11]; > 100 µM (inactive) in [12]. Moreover, the GI50 in assay [13] is > 100 µM (inactive); in [14] it was 23.4 µM (inactive); in assay [15] it was > 100 µM (inactive); in assay [16] it was > 100 µM (inactive); in [17], 78.2 µM (inactive); in [18], 28.9 µM (inactive). The GI50 in assay [19] was 90.8 µM (inactive); in [20] it was > 100 µM (inactive).

Consider `O=C(NC(Cc1c[nH]c2ccccc12)C(=O)O)/C(=C/c1ccccc1O)NC(=O)c1ccccc1` (stereo not given), for which the GI50 in [1] was 18.4 µM (inactive); in assay [2], > 100 µM (inactive); in assay [3], 6.78 µM (inactive); in [4], 17.6 µM (inactive); in assay [5] it was 7.16 µM (inactive); in [6], 22.7 µM (inactive). Also, the GI50 in [7] is 14.5 µM (inactive); in [8], 25.6 µM; in assay [9], 19.2 µM (inactive); in assay [10], 19.8 µM (inactive); in [11], 24.2 µM (inactive); in assay [12] it was > 100 µM (inactive). The GI50 in [13] was 19.2 µM (inactive); in [14], 16.3 µM (inactive); in assay [15] it was 3.08 µM (inactive); in assay [16] it was 29.2 µM (inactive); in assay [17], 22.4 µM (inactive); in assay [18], 57.5 µM (inactive). Besides, the GI50 in assay [19] was > 100 µM (inactive); in assay [20] it was 28.5 µM (inactive).

On to `COc1ccc(CSCc2cc(OC)c(OC)c(OC)c2)cc1`, for which the GI50 is > 84.5 µM (inactive) in assay [1]; > 54.5 µM (inactive) in assay [2]; > 100 µM (inactive) in assay [3]; > 100 µM (inactive) in [4]; 27.1 µM (inactive) in assay [5]; > 68.1 µM (inactive) in assay [6]. The GI50 in assay [7] was 23.9 µM (inactive); in [8], > 45.3 µM; in [9], > 100 µM (inactive); in [10], > 52.4 µM (inactive); in assay [11] it was > 43 µM (inactive); in [12] it was > 100 µM (inactive). Besides, the GI50 is > 100 µM (inactive) in assay [13]; > 100 µM (inactive) in assay [14]; > 56 µM (inactive) in assay [15]; > 31.6 µM (inactive) in assay [16]; > 31.6 µM (inactive) in assay [17]; > 100 µM (inactive) in assay [18]. The GI50 in assay [19] is > 100 µM (inactive); in [20], > 82 µM (inactive).

With `CN(/N=C/C=N/N(C)C1=NCCCN1)C1=NCCCN1`, the GI50 in assay [1], in [2], in assay [3], in [4], in assay [5] and in assay [6] was > 100 µM (inactive) each time. The GI50 in assay [7] was > 100 µM (inactive); in [8], > 100 µM; in [9], > 100 µM (inactive); in assay [10], > 100 µM (inactive); in [11], > 100 µM (inactive); in [12], > 100 µM (inactive). Further, the GI50 in assay [13], in [14], in [15], in assay [16], in [17] and in [18] was > 100 µM (inactive) throughout. For the same molecule, the GI50 in [19] and in assay [20] was > 100 µM (inactive) each time.

Regarding `CC(=O)OC1CC[C@@]2(C)C(CC[C@]3(C)C2CC=C2[C@@H]4CC(C)(C)CCC4(C)CCC23C)[C@@]1(C)C(=O)O` (stereo not given in full), the GI50 was 29.9 µM (inactive) in [1]; 19.9 µM (inactive) in assay [2]; 16 µM (inactive) in [3]; 18.2 µM (inactive) in [4]; 12 µM (inactive) in [5]; 18.9 µM (inactive) in [6]. Moreover, the GI50 was 20.4 µM (inactive) in assay [7]; 7.93 µM in assay [8]; 16.4 µM (inactive) in [9]; 17.9 µM (inactive) in assay [10]; 15.4 µM (inactive) in assay [11]; 22.7 µM (inactive) in assay [12]. The GI50 is 12.1 µM (inactive) in assay [13]; 22 µM (inactive) in assay [14]; 14.9 µM (inactive) in [15]; 16.1 µM (inactive) in assay [16]; 21.4 µM (inactive) in assay [17]; 14.9 µM (inactive) in [18]. Also, the values for the GI50 in assay [19] and in assay [20] were 15.9 µM (inactive) and 16.6 µM (inactive), respectively.
